Experimental data taken from publication PMC9866588, “Novel 7-Chloro-4-aminoquinoline-benzimidazole Hybrids as Inhibitors of Cancer Cells Growth: Synthesis, Antiproliferative Activity, in Silico ADME Predictions, and Docking” (Molecules, 2023).

Key:
[1] = tested on: MDCK1 (Madine–Darby canine kidney) cells; experiment: MTT antiproliferative assay, MDCK1; type: cell-based; details: Canis lupus familiaris, MDCK1, 72 h, mean ± SD of three independent experiments
Procedure: (§1) The growth inhibition activity was assessed according to the slightly modified procedure performed at the National Cancer Institute, Developmental Therapeutics Program.
(§2) The examined compounds were dissolved in DMSO (1 × 10^−2 M). The experiments were carried out on seven human tumor cell lines and a normal cell line. The following cell lines were used: HeLa (human cervical adenocarcinoma; purchased from ATCC), CaCo-2 (human colorectal adenocarcinoma), MCF-7 (human breast adenocarcinoma), CCRF-CEM (human acute lymphoblastic leukemia), Hut78 (T-cell lymphoma), THP-1 (acute monocytic leukemia), Burkitt lymphoma (Raji), and MDCK1 (Madine–Darby canine kidney). The MDCK1 cells were used between 24 and 26 passages.
(§3) The adherent cells were cultured in Dulbecco’s modified Eagle medium—DMEM (Gibco, Termo Fisher Scientific Inc., Leicestershire, England, UK), supplemented with 10% heat-inactivated fetal bovine serum (FBS, Gibco, Termo Fisher Scientific Inc., Leicestershire, England, UK), 2 mM glutamine, and 100U/0.1mg penicillin/streptomycin. The cells in suspension were cultured in RPMI 1640 (Gibco, Termo Fisher Scientific Inc., Leicestershire, England, UK) medium, supplemented with 10% FBS (Gibco, Termo Fisher Scientific Inc., Leicestershire, England, UK), 2 mM glutamine, 1 mM sodium pyruvate, and 10 mM HEPES. The cells were grown in a humidified atmosphere under the conditions of 37 °C/5% of CO2 gas in the CO2 incubator (IGO 150 CELLlife^TM, JOUAN, Thermo Fisher Scientific, Waltham, MA, USA).
(§4) The adherent cells (HeLa, CaCo-2, MCF-7, and MDCK-1) were plated in 96-well flat bottom plates (Greiner, Frickenhausen, Austria) at a concentration of 2 × 10^4 cells/mL. The suspension cells (Raji, THP-1, CCRF-CEM and Hut78) were plated in 96-well microtiter plates (Sarstead, Newton, NC, USA) at a concentration of 1 × 10^5 cells/mL. Twenty-four hours later, the cells were treated with test agents in […] and incubated for a further 72 h. The working dilutions were freshly prepared on the day of testing. The solvent was also tested for eventual inhibitory activity by adjusting its concentration to be the same as in the working concentrations. After 72 h of incubation, the cell growth rate was evaluated by performing the MTT assay, which detects dehydrogenase activity in viable cells. For this purpose, upon completion of the incubation period, the growth medium was discarded and 50 μL of MTT was added to each well at a concentration of 5 mg/mL. After four hours of incubation at 37 °C, the water insoluble MTT-formazan crystals were dissolved in 150 μL of dimethyl-sulfoxide (DMSO) for the adherent cells and in 10% SDS with 0.01 mol/L HCl for the cells grown in suspension. The absorbance (OD, optical density) was measured on a microplate reader (iMark, BIO RAD, Hercules, CA, USA) at 595 nm.
(§5) The percentage of live cells was calculated as follows: % = OD (sample) − OD (background)/OD (control) − OD (background) × 100.
(§6) The optical density (OD) of the background for the adherent cells is the OD of the MTT solution and DMSO; the OD (background) for the suspension cells is the OD of the culture medium with MTT and 10% SDS with 0.01 mol/L HCl; the OD (control) is the OD of the cells grown without the tested compounds.
(§7) The calculation of the GI50 value curves and QC analysis was performed using the Excel tools and GraphPadPrism software (La Jolla, CA, USA), v. 5.03. Briefly, individual concentration effect curves are generated by plotting the logarithm of the concentration of the tested compounds (X) vs. the corresponding percent inhibition values (Y) using the least squares fit. The best-fit GI50 values are calculated using log (inhibitor) versus normalized response—variable slope equation, where Y Ľ 100/(1 ţ 10 ((LogIC50 _ X) × HillSlope)). The QC criteria parameters (Z0, S:B, R2, HillSlope) were checked for every GI50 curve.

[2] = tested on: HeLa (human cervical adenocarcinoma) cells; experiment: MTT antiproliferative assay, HeLa; type: cell-based; details: 72 h, mean ± SD of three independent experiments
Procedure: as §1, §2, §3, §4, §5, §6, §7

[3] = tested on: CaCo-2 (human colorectal adenocarcinoma) cells; experiment: MTT antiproliferative assay, CaCo-2; type: cell-based; details: 72 h, mean ± SD of three independent experiments
Procedure: as §1, §2, §3, §4, §5, §6, §7

[4] = tested on: MCF-7 (human breast adenocarcinoma) cells; experiment: MTT antiproliferative assay, MCF-7; type: cell-based; details: MCF7, 72 h, mean ± SD of three independent experiments
Procedure: as §1, §2, §3, §4, §5, §6, §7

[5] = tested on: CCRF-CEM (human acute lymphoblastic leukemia) cells; experiment: MTT antiproliferative assay, CCRF-CEM; type: cell-based; details: for GI50: Homo sapiens, CCRF-CEM, 72 h, MTT, mean ± SD of three independent experiments
Procedure: as §1, §2, §3, §4, §5, §6, §7

[6] = tested on: THP-1 (acute monocytic leukemia) cells; experiment: MTT antiproliferative assay, THP-1; type: cell-based, human; details: for GI50: Homo sapiens, THP-1, 72 h, MTT, mean ± SD of three independent experiments, read-out: GI50 THP1
Procedure: as §1, §2, §3, §4, §5, §6, §7

[7] = tested on: Raji (Burkitt lymphoma) cells; experiment: MTT antiproliferative assay, Raji; type: cell-based, human; details: for GI50: Homo sapiens, Raji, 72 h, MTT, mean ± SD of three independent experiments
Procedure: as §1, §2, §3, §4, §5, §6, §7

[8] = tested on: Hut78 (T-cell lymphoma) cells; experiment: MTT antiproliferative assay, HuT78; type: cell-based, human; details: for GI50: Homo sapiens, HuT78, 72 h, MTT, mean ± SD of three independent experiments; for tumor selectivity index (SI) HuT78: with respect to MDCK1 cells
Procedure: as §1, §2, §3, §4, §5, §6, §7

[9] = MTT antiproliferative assay, ranges stated over several cell lines; type: cell-based; details: human (tumor cell lines) and dog (MDCK1); abstract, range over cell lines; read-out: GI50 range (strong cytotoxic activity)
Procedure: as §1, §2, §3, §4, §5, §6, §7

[10] = tested on: normal (MDCK1) and tumor cell lines; experiment: as above; type: cell-based; details: MDCK1 and carcinoma cell lines; read-out: GI50, normal and carcinoma cells
Procedure: as §1, §2, §3, §4, §5, §6, §7

HuT78 cells [11] = experiment: Flow cytometry analysis of cell cycle, HuT78; type: cell-based, human; details: HuT78, 5 μM, 24 h
Procedure: (§8) To analyze the effects of the selected compounds (5d, 8d, and 12d) on the cell cycle of the HuT78 and THP-1 cells, the cells were seeded in 6-well plates (5 × 10^5 cells per well) and treated for 24 h with the selected compounds 5d and 12d (5 μM). The cells were then collected and fixed in cold 70% ethanol. The fixed samples were stained with 15 µg/mL of propidium iodide (PI) at room temperature and analyzed by flow cytometry (FACS Canto II, BD Biosciences). The results were analyzed using FlowLogic software.
(§9) One-way ANOVA analysis of variance was performed in the MedCalc statistical program for the analysis of the cell cycle. p-values of less than 0.05 were considered to be statistically significant.

THP-1 cells = experiment: Flow cytometry analysis of cell cycle, THP-1; type: cell-based, human; details: THP-1, 5 μM, 24 h
Procedure: as §8, §9

HuT78 cells [12] = experiment: Mitochondrial membrane potential (∆Ψm), TMRE flow cytometry; type: cell-based, human; details: HuT78, 5 μM, 24 h
Procedure: Changes in the (∆Ψm) were measured using TMRE (tetramethylrhodamine, ethyl ester and perchlorate) dye. In brief, the tested cells (HuT 78) were plated in 6-well plates at a concentration of 5 × 10^5 cells per well and treated with 5 μM of the compounds 5d and 12d. After 24 h of treatment, the cells were collected, centrifuged for 6 min at 1100 rpm, and stained with 200 nM of TMRE dye according to the kit protocol (TMRE Mitochondrial Membrane Potential Assay Kit, abcam, Cambridge, UK). The positive control cells were treated with 20 μM FCCP (carbonyl cyanide-p-trifluoromethoxyphenylhydrazone) for 10 min. The cells were analyzed by flow cytometry (BD FACSCalibur, Becton Dickinson, San Jose, CA, USA) and FlowJo software (FlowJo, LLC, Ashland, OR, USA).

HuT78 cells [13] = experiment: Annexin V-FITC/PI apoptosis detection; type: cell-based, human; details: HuT78, 5 μM, 24 h
Procedure: The proapoptotic potential of compounds 5d and 12d was tested on the HuT78 cells using the Annexin V-FITC Apoptosis Staining/Detection Kit (ab14085; abcam, UK). The cells were plated in 6-well plates at a concentration of 5 × 10^5 cells/well and treated for 24 h with 12d at a concentration of 5 μM. After the incubation period, the cells were collected and centrifuged at 1100 rpm for 6 min, stained according to the manufacturer‘s protocol, and analyzed by flow cytometry (BD FACSCalibur, Becton Dickinson, San Jose, CA, USA) using FlowJo software (FlowJo, LLC, Ashland, OR, USA).

In the case of `Clc1ccc2c(N3CCN(c4ccc(-c5nc6ccccc6[nH]5)cc4)CC3)ccnc2c1` [Compound 8d, 4-(4-(4-(1H-benzo[d]imidazol-2-yl)phenyl)piperazin-1-yl)-7-chloroquinoline], the GI50 [1] is reported as greater than 100 µM, the GI50 [2] is reported as greater than 100 µM and the GI50 [3] is reported as greater than 100 µM. The GI50 [4] was greater than 100 µM, the GI50 [5] was 5 ± 2.6 µM and the “tumor selectivity index (SI) CCRF CEM” value ([5]; with respect to MDCK1 cells) was greater than 20. For the same molecule, the GI50 [6] was 3.2 ± 1.1 µM, the “tumor selectivity index (SI) THP1” value ([6]; with respect to MDCK1 cells) was greater than 31.5 and the GI50 [7] was 3.8 ± 0.5 µM. For the same molecule, the “tumor selectivity index (SI) Raji” value ([7]; with respect to MDCK1 cells) was greater than 26.3, the GI50 [8] was 8.1 ± 4.7 µM and the “tumor selectivity index (SI) HuT78” value [8] was greater than 12.3. For the same molecule, the GI50 at 72 h [9] was 0.4 to 8 µM, the GI50 [10] was greater than 100 µM and the “changes in the cell cycle” value (HuT78 cells [11]; vs non-treated cells) was “no significant changes”. For the same molecule, the “changes in the cell cycle” value (THP-1 cells; vs non-treated cells) was “no significant changes”.

`O=C(NCCNc1ccnc2cc(Cl)ccc12)c1ccc(-c2nc3ccccc3[nH]2)cc1` [Compound 12d, 4-(1H-benzo[d]imidazol-2-yl)-N-(2-(7-chloroquinolin-4-ylamino)ethyl)benzamide] gave a GI50 [1] of 100 µM, a GI50 [2] of 100 µM and a GI50 [3] of 16.4 ± 5.6 µM. For the same molecule, the GI50 [4] was 20 ± 7.2 µM, the GI50 [5] was 17.2 ± 7.7 µM and the GI50 [6] was 4 ± 0.8 µM. The GI50 [7] was 57.7 ± 23.8 µM, the GI50 [8] was 3.5 ± 1.5 µM and the “tumor selectivity index (SI) HuT78” value [8] was 28.5. The GI50 at 72 h [9] was 0.4 to 8 µM, the “proportion of polyploid giant cancer cells” value (HuT78 cells [11]) was “increased proportion” and the “increase of cells in subG0/G1 phase” value (HuT78 cells [11]; vs control) was 46 times. The “decrease in G0/G1 phase” value (HuT78 cells [11]; vs non-treated cells) was 63.8%, the “changes in the other phases of the cell cycle (other than subG0/G1)” value (THP-1 cells) was “not statistically significant” and the “increase of cells in subG0/G1 phase” value (THP-1 cells; vs control) was 3.4 times. The “cells with mitochondrial membrane disruption / change in ∆Ψm” value (HuT78 cells [12]) was “more than 85%”, the “cells in early apoptosis” value (HuT78 cells [13]) was 3.97% and the “cells in late stage of apoptosis/necrosis” value (HuT78 cells [13]) was 83.75%.
